Tests used:
[1] = system: BxPC3 subcutaneous xenograft; conditions: BxPC3 subcutaneous xenograft mouse model; cited from earlier work
[2] = system: L3.6pl pancreatic cancer cells; assay: Apoptosis by Hoechst staining and PARP cleavage, L3.6pl; assay type: cell-based; conditions: 10 μM, 24 h
[3] = target: HDAC2 (Homo sapiens, UniProt Q92769); assay: HDAC2 isozyme inhibition; assay type: biochemical; conditions: for SI HDAC2/6: selectivity index
[4] = target: HDAC3 (Homo sapiens, UniProt O15379); assay: HDAC3 isozyme inhibition; assay type: biochemical; conditions: for SI HDAC3/6: selectivity index
[5] = system: BxPC3 pancreatic cancer cells; assay: Apoptosis induction, BxPC3; assay type: cell-based; conditions: BxPC3, data not shown
[6] = target: HDAC1 (Homo sapiens, UniProt Q13547); assay: HDAC1 isozyme inhibition; assay type: biochemical; conditions: for SI HDAC1/6: selectivity index
[7] = target: T1, HDAC6 (Homo sapiens, UniProt Q9UBN7); assay: HDAC6 isozyme inhibition; assay type: biochemical; conditions: read-out: HDAC Isoform, IC50, Class II, 6; duplicate, 10-dose IC50 mode, 3-fold serial dilution starting at 30 μM; average ± standard deviation
T1 sequence (Q9UBN7 1-1215): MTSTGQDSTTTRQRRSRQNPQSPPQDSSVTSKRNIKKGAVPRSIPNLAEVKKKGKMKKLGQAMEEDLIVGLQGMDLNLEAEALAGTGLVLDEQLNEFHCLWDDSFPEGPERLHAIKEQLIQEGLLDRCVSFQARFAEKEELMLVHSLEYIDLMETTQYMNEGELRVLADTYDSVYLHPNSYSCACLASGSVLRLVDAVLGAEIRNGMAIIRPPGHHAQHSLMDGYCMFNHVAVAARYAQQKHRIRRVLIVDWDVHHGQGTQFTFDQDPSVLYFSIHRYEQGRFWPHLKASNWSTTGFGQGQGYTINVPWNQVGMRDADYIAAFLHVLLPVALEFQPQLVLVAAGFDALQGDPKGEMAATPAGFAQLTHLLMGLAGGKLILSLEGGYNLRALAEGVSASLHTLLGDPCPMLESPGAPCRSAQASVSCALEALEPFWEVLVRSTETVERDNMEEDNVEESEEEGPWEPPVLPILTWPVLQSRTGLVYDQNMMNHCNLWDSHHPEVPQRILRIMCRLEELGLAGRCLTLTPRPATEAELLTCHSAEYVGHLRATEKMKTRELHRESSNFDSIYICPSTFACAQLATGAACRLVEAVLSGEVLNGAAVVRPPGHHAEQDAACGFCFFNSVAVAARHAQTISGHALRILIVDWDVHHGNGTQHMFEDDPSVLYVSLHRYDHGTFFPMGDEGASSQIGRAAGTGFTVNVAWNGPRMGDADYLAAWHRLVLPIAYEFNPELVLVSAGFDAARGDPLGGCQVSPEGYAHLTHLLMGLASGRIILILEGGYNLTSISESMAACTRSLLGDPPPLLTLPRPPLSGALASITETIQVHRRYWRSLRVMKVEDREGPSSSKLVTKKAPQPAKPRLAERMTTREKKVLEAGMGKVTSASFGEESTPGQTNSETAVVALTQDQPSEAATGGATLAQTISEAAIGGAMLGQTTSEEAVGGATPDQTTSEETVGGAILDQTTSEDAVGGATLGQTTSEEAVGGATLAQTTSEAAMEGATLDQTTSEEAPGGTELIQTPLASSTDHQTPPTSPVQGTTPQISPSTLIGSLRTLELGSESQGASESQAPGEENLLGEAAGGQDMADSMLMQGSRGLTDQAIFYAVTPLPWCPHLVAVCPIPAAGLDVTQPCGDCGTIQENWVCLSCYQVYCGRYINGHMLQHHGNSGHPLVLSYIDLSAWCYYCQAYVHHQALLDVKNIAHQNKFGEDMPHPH

[8] = target: T2, HDAC10 (Homo sapiens, UniProt Q969S8); assay: HDAC10 isozyme inhibition; assay type: biochemical; conditions: for SI HDAC10/6: selectivity index
T2 sequence (Q969S8 1-669): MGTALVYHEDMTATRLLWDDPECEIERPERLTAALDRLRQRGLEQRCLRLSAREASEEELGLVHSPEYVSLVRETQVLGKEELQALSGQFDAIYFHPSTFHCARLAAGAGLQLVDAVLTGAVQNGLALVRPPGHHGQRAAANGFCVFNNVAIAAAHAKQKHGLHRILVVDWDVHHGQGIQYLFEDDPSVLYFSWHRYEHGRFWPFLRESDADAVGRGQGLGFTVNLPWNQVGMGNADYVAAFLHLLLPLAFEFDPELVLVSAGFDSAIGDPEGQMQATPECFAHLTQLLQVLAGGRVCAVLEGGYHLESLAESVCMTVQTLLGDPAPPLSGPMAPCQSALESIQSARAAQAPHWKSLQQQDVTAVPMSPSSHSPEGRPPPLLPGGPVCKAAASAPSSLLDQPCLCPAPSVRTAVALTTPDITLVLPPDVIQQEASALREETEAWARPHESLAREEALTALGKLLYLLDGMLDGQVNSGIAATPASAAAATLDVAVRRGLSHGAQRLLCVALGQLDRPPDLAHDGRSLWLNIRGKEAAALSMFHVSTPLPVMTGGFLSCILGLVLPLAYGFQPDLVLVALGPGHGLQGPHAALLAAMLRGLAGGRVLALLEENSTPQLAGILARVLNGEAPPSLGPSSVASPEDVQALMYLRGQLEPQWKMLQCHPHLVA

[9] = system: L3.6pl pancreatic cancer cells; assay: Growth inhibition, MTS cell proliferation assay, L3.6pl; assay type: cell-based; conditions: Homo sapiens, 72 h, read-out: L3.6pl GI50

Sequence of HDAC1 (Q13547 whole entry, canonical isoform): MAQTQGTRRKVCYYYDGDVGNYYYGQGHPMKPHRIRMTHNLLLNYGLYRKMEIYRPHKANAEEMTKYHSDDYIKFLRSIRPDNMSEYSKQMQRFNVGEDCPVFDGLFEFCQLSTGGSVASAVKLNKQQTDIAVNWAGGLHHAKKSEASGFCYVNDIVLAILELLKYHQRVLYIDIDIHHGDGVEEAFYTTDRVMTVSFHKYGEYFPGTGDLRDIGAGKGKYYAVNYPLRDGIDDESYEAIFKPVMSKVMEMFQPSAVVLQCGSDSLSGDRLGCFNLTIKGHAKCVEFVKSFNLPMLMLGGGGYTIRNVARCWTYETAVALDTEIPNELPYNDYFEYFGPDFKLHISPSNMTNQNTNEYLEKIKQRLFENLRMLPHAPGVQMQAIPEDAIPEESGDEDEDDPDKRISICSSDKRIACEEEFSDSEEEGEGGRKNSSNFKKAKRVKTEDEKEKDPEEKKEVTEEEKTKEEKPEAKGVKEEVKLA
Sequence of HDAC2 (Q92769 whole entry): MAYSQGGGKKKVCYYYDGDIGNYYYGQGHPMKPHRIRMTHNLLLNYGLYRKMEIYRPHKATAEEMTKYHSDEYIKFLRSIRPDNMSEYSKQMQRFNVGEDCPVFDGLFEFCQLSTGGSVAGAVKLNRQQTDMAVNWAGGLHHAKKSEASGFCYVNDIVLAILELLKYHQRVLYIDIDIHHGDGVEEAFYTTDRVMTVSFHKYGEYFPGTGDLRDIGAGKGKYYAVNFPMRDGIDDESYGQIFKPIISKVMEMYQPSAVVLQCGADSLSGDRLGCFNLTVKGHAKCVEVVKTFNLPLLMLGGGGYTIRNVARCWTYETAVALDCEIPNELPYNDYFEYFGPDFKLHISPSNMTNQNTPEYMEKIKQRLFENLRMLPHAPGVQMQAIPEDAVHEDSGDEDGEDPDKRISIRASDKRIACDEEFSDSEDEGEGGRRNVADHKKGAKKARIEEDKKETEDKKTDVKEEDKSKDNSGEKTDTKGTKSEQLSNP
Sequence of HDAC3 (O15379 whole entry): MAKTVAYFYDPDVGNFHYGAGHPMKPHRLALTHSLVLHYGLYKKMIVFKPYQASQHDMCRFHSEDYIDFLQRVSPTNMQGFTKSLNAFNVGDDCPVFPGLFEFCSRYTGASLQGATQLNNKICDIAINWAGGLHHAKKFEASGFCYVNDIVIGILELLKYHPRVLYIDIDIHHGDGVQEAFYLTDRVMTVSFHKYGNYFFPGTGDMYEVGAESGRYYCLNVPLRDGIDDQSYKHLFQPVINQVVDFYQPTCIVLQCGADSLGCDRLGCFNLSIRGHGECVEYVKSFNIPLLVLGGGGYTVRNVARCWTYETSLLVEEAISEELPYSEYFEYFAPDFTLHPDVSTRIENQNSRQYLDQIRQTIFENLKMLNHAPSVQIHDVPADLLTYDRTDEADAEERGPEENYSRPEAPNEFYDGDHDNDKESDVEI
Sequence of HDAC3 (Q9Y618 395-489 partner limits assumed): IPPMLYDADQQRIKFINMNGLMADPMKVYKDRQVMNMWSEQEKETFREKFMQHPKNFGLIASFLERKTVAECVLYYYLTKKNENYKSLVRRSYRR

Cc1[nH]c2ccccc2c1CCNCc1ccc(/C=C/C(=O)NO)cc1 [panobinostat]
apoptosis and tumor growth [1]: promote apoptosis and reduce tumor growth

O=C(CCc1cc(C(=O)NO)no1)Nc1nc(-c2ccccc2)cs1 [Compound 2, 5-[2-[N-(4-Phenylthiazol-2-yl)carbamoyl]ethyl]isoxazole-3-carbohydroxyamic Acid]
induction of apoptosis (Hoechst staining, PARP cleavage) [2]: effectively induced apoptosis
IC50 ([3]; read-out: HDAC Isoform, IC50, Class I, 2, singlet, 10-dose IC50 mode, 3-fold serial dilution starting at 30 μM, >50000 = no inhibition at 50 μM): 1140 nM
SI HDAC2/6 [3]: 37
IC50 ([4]; read-out: HDAC Isoform, IC50, Class I, 3, singlet, 10-dose IC50 mode, 3-fold serial dilution starting at 30 μM, >50000 = no inhibition at 50 μM): 320 nM
SI HDAC3/6 [4]: 10
induction of apoptosis [5]: none of compounds 1, 2, or 4 induced apoptosis
IC50 ([6]; read-out: HDAC Isoform, IC50, Class I, 1, singlet, 10-dose IC50 mode, 3-fold serial dilution starting at 30 μM, >50000 = no inhibition at 50 μM): 307 nM
SI HDAC1/6 [6]: 10
IC50 [7]: 31 ± 3.4 nM
IC50 ([8]; read-out: HDAC Isoform, IC50, Class II, 10, singlet, 10-dose IC50 mode, 3-fold serial dilution starting at 30 μM, >50000 = no inhibition at 50 μM): 407 nM
SI HDAC10/6 [8]: 13

CCOC(=O)Nc1ccc(-c2csc(NC(=O)CCCc3cc(C(=O)NO)no3)n2)cc1 [Compound 4, N-[4-[2-[4-[3-(N-Hydroxycarbamoyl)isoxazol-5-yl]butyrylamino]thiazol-4-yl]phenyl]carbamic Acid Ethyl Ester]
induction of apoptosis (Hoechst staining, PARP cleavage) [2]: effectively induced apoptosis
SI HDAC2/6 [3]: 17
SI HDAC3/6 [4]: 7.2
induction of apoptosis [5]: none of compounds 1, 2, or 4 induced apoptosis
SI HDAC1/6 [6]: 4.1
SI HDAC10/6 [8]: 6.6

O=C(CCCc1cc(C(=O)NO)no1)Nc1nc(-c2ccccc2)cs1 [Compound 1, 5-[3-[N-(4-Phenylthiazol-2-yl)carbamoyl]propyl]isoxazole-3-carbohydroxamic Acid]
GI50 [9]: 1300 nM
induction of apoptosis (Hoechst staining, PARP cleavage) [2]: effectively induced apoptosis
SI HDAC2/6 [3]: 15
SI HDAC3/6 [4]: 11
induction of apoptosis [5]: none of compounds 1, 2, or 4 induced apoptosis
SI HDAC1/6 [6]: 4.3
SI HDAC10/6 [8]: 10
